# Data from patent US20260285850A1, “SUBSTITUTED OXAZOLIDINONES AND IMIDAZOLINONES AS HERBICIDES” (FMC CORPORATION, priority 2023, published 2026).
# Legend:
# Type in all cases: in vivo
# [1] = tested on: blackgrass (Alopecurus myosuroides); test: Test A postemergence application, visual injury rating 0-100
# In short: (§1)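 Directed preemergence spray onto seeded soil or postemergence spray onto 2-10 cm plants (loam plus sand); compound carried in surfactant-containing non-phytotoxic solvent. Injury rated by eye after 10 d greenhouse growth; 0 = no effect, 100 = complete control.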
# [2] = tested on: galium (catchweed bedstraw, Galium aparine); test: as above
# In short: as §1
# [3] = tested on: oat, wild (wild oat, Avena fatua); test: as above
# In short: as §1
# [4] = tested on: green foxtail (Setaria viridis); test: as above
# In short: as §1
# [5] = tested on: barnyardgrass (Echinochloa crus-galli); test: as above
# In short: as §1
# [6] = tested on: wheat (Triticum aestivum); test: as above
# In short: as §1
# [7] = tested on: corn (Zea mays); test: as above
# In short: as §1
# [8] = tested on: soybean (Glycine max); test: as above
# In short: as §1
# [9] = tested on: ragweed (common ragweed, Ambrosia artemisiifolia); test: as above
# In short: as §1
# [10] = tested on: horseweed (Erigeron canadensis); test: as above
# In short: as §1
# [11] = tested on: ryegrass, Italian (italian ryegrass, Lolium multiflorum); test: as above
# In short: as §1
# [12] = tested on: palmer (palmer amaranth, palmer pigweed, Amaranthus palmeri); test: as above
# In short: as §1
# [13] = tested on: kochia (Bassia scoparia); test: as above
# In short: as §1
# [14] = tested on: rice (Oryza sativa); test: Test B flooded paddy test, visual plant response rating 0-100; conditions: 250 g ai/ha, Flood, applied to paddy water, evaluated after 13 days
# In short: (§2)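 Visual scores versus untreated controls were recorded 13 days after treatment of greenhouse-held plants. At the 2-leaf stage, pots were flooded 3 cm above the soil surface and compounds added straight to the water.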
# [15] = tested on: ducksalad (Heteranthera limosa); test: as above; conditions: 250 g ai/ha, Flood, applied to paddy water, evaluated after 13 days
# In short: as §2
# [16] = tested on: sedge, umbrella (small-flower umbrella sedge, Cyperus difformis); test: as above; conditions: 250 g ai/ha, Flood, applied to paddy water, evaluated after 13 days
# In short: as §2
# [17] = tested on: barnyardgrass (Echinochloa crusgalli); test: as above; conditions: 250 g ai/ha, Flood, applied to paddy water, evaluated after 13 days
# In short: as §2
# [18] = tested on: blackgrass (Alopecurus myosuroides); test: Test A preemergence soil spray, visual injury rating 0-100; conditions: 10 days
# In short: as §1
# [19] = tested on: oat, wild (wild oat, Avena fatua); test: as above; conditions: 10 days
# In short: as §1
# [20] = tested on: green foxtail (Setaria viridis); test: as above; conditions: 10 days
# In short: as §1
# [21] = tested on: barnyardgrass (Echinochloa crus-galli); test: as above; conditions: 10 days
# In short: as §1
# [22] = tested on: wheat (Triticum aestivum); test: as above; conditions: 10 days
# In short: as §1
# [23] = tested on: corn (Zea mays); test: as above; conditions: 10 days
# In short: as §1
# [24] = tested on: soybean (Glycine max); test: as above; conditions: 10 days
# In short: as §1
# [25] = tested on: ragweed (common ragweed, Ambrosia artemisiifolia); test: as above; conditions: 10 days
# In short: as §1
# [26] = tested on: ryegrass, Italian (italian ryegrass, Lolium multiflorum); test: as above; conditions: 10 days
# In short: as §1
# [27] = tested on: palmer (palmer amaranth, palmer pigweed, Amaranthus palmeri); test: as above; conditions: 10 days
# In short: as §1
# [28] = tested on: kochia (Bassia scoparia); test: as above; conditions: 62 g ai/ha, 10 days, 0 = no effect, 100 = complete control
# In short: as §1
# [29] = 62 g ai/ha, postemergence, 10 days, 0 = no effect, 100 = complete control
# [30] = Postemergence, 16 g ai/ha, greenhouse 10 days, 0 no effect, 100 complete control
# [31] = 62 g ai/ha, 0 = no effect, 100 = complete control
smiles,measurement,setting,value
COC(=O)C1=CCC(NC(=O)C2(C)CN(c3cc(Cl)c(F)c(Cl)c3)C(=O)O2)C1 (stereo not drawn) [Compound 129],Blackgrass plant response rating (0-100),[1]; [29],40
same,Blackgrass plant response rating (0 to 100 scale),[1]; [30],20
same,Galium plant response rating (0-100),[2]; [29],80
same,Galium plant response rating (0 to 100 scale),[2]; [30],70
same,"Oat, Wild plant response rating (0-100)",[3]; [29],20
same,"Oat, Wild plant response rating (0 to 100 scale)",[3]; [30],10
same,"Foxtail, Green plant response rating (0-100)",[4]; [29],90
same,"Foxtail, Green plant response rating (0 to 100 scale)",[4]; [30],20
same,Barnyardgrass plant response rating (0-100),[5]; [29],100
same,Barnyardgrass plant response rating (0 to 100 scale),[5]; [30],80
same,Wheat plant response rating (0-100),[6]; [29],80
same,Wheat plant response rating (0 to 100 scale),[6]; [30],10
same,Corn plant response rating (0-100),[7]; [29],100
same,Corn plant response rating (0 to 100 scale),[7]; [30],70
same,Soybean plant response rating (0-100),[8]; [29],70
same,Soybean plant response rating (0 to 100 scale),[8]; [30],20
same,Ragweed plant response rating (0-100),[9]; [29],30
same,Ragweed plant response rating (0 to 100 scale),[9]; [30],0
same,Horseweed plant response rating (0-100),[10]; [29],60
same,Horseweed plant response rating (0 to 100 scale),[10]; [30],0
same,"Ryegrass, Italian plant response rating (0-100)",[11]; [29],60
same,"Ryegrass, Italian plant response rating (0 to 100 scale)",[11]; [30],30
same,"Pigweed, Palmer plant response rating (0-100)",[12]; [29],70
same,"Pigweed, Palmer plant response rating (0 to 100 scale)",[12]; [30],50
same,Kochia plant response rating (0-100),[13]; [29],80
same,Kochia plant response rating (0 to 100 scale),[13]; [30],50
same,"Plant response rating, Rice (0 to 100 scale, 0 is no effect and 100 is complete control)",[14],40
same,"Plant response rating, Ducksalad (0 to 100 scale, 0 is no effect and 100 is complete control)",[15],70
same,"Plant response rating, Sedge, Umbrella (0 to 100 scale, 0 is no effect and 100 is complete control)",[16],90
same,"Plant response rating, Barnyardgrass (0 to 100 scale, 0 is no effect and 100 is complete control)",[17],50
same,Blackgrass plant response rating,"[18]; 16 g ai/ha, 0 to 100 scale",0
same,Blackgrass plant response rating (0-100),[18]; [31],0
same,"Oat, Wild plant response rating","[19]; 16 g ai/ha, 0 to 100 scale",0
same,"Oat, Wild plant response rating (0-100)",[19]; [31],0
same,"Foxtail, Green plant response rating","[20]; 16 g ai/ha, 0 to 100 scale",0
same,"Foxtail, Green plant response rating (0-100)",[20]; [31],0
same,Barnyardgrass plant response rating,"[21]; 16 g ai/ha, 0 to 100 scale",0
same,Barnyardgrass plant response rating (0-100),[21]; [31],30
same,Wheat plant response rating,"[22]; 16 g ai/ha, 0 to 100 scale",0
same,Wheat plant response rating (0-100),[22]; [31],20
same,Corn plant response rating,"[23]; 16 g ai/ha, 0 to 100 scale",0
same,Corn plant response rating (0-100),[23]; [31],30
same,Soybean plant response rating,"[24]; 16 g ai/ha, 0 to 100 scale",0
same,Soybean plant response rating (0-100),[24]; [31],0
same,Ragweed plant response rating,"[25]; 16 g ai/ha, 0 to 100 scale",0
same,Ragweed plant response rating (0-100),[25]; [31],0
same,"Ryegrass, Italian plant response rating","[26]; 16 g ai/ha, 0 to 100 scale",0
same,"Ryegrass, Italian plant response rating (0-100)",[26]; [31],40
same,"Pigweed, Palmer plant response rating","[27]; 16 g ai/ha, 0 to 100 scale",0
same,"Pigweed, Palmer plant response rating (0-100)",[27]; [31],20
same,Kochia plant response rating (0-100),[28],0
